US20130295083A1, “2a-Methyl-19-nor-(20S)-1a,25-dihydroxyvitamin D3 (2AMD) or 2 methylene-19-nor-(20S)-1a,25-dihydroxyvitamin D3 (2MD) Support Survival and Function of Transplanted Islet Cells In Type 1 Diabetes” (Wisconsin Alumni Research Foundation, priority 2012, published 2013)

Columns and labels:
[1] = test system: insulin-2 knockout non-obese diabetic mouse; conditions: rodent model of spontaneous T1D; Kiekhaefer et al. 2011; cited from earlier work
[2] = Adverse effects: food consumption, weight gain, body weights in transplanted NOD mice; assay type: in vivo
Protocol: (§1) Mice were treated with either 400 picograms of 2AMD/mouse/day or with vehicle. 2AMD was administered by addition of the analog in the vehicle to LabDiet 5K52 (PMI Nutrition, Brentwood, Miss.). In order to deliver the designated dose of 2AMD, a stock solution of the analog was dissolved in EtOH, vortexed for 3 min, and the analog concentration was determined by spectrophotometry. Based on pre-determined diet consumption, diet was prepared to provide 400 pg of 2AMD/mouse/day. The diets were solidified with molten agar (USB Corporation, Cleveland, Ohio). Controls were fed diet prepared as described above but the vehicle containing no 2AMD. Mice in each group were fed either 2AMD diet or vehicle diet from the day of diabetes determination until the completion of the study.

[3] = Serum calcium analysis in transplanted NOD mice; assay type: in vivo; conditions: 400 pg/day
Protocol: as §1
Blood was collected from the orbital sinus 3 weeks after initiation of control or 2AMD treatment and every 3 weeks thereafter. Blood samples were spun at 2,938 g for 15 min, followed by a second and third spin at 16,883 g, each for 2 min. Serum calcium levels were determined by atomic absorption in 0.1% LaCl3.

Female NOD mice = assay: Islet transplantation in spontaneously diabetic NOD mice: duration of normoglycemia / graft survival; assay type: in vivo; conditions: for Duration of Normoglycemia: 2 mice; for diabetes reversal / indefinite survival of syngeneic islet grafts: 400 pg/mouse/day
[4] = chow-based diet, 800 islet equivalents
[5] = purified diet, 400 islet equivalents

For “2α-methyl-19-nor-(20S)-1α,25-dihydroxyvitamin D3 [2AMD]”, the “effect on development of type 1 diabetes” value [1] is given as “prevented the transition from insulitis to diabetes”, the “adverse effects as revealed by food consumption, weight gain and comparative body weights” value ([2]; 400 pg/day, chow-based diet, 800 islet equivalents) is given as “No adverse effects” and the “food consumption, weight gain, and comparative body weights” value ([2]; 2AMD purified diet group, 400 islet equivalents, attributed to hydration of two dietary components (early satiety), reversed after replacement at week 22) is given as “reduced”. The average serum calcium ([3]; chow diet, 400 islet equivalents, control 10.0 mg/dl) was 10.7 mg/dL, the average serum calcium ([3]; chow-based diet, 800 islet equivalents, control mice 9.8 mg/dl) was 10.3 mg/dL and the average serum calcium ([3]; purified diet, 400 islet equivalents, control 10.0 mg/dl) was 10.8 mg/dL. For the same substance, the “Duration of Normoglycemia” value (Female NOD mice; chow diet, 400 islet equivalents, 400 pg 2AMD/mouse/day, vehicle control 28 days) was no less than 83 days, the Duration of Normoglycemia (Female NOD mice; chow-based diet, 800 islet equivalents, 400 pg 2AMD/mouse/day in diet, vehicle control 110 days) was greater than 230 days and the diabetes reversal (Female NOD mice; [4]) was 100%. For the same substance, the “indefinite survival of syngeneic islet grafts” value (Female NOD mice; [4]) was 100%, the “additional days of continuing normoglycemia compared to the untreated control” value (Female NOD mice; murine model, 2AMD treatment vs untreated control) was “at least 130 days” and the diabetes reversal (Female NOD mice; [5]) was 100%. The “indefinite survival of syngeneic islet grafts” value (Female NOD mice; [5]) was 100%.
